Test [1] deals with HIV-2 vectors harboring the double mutation (I54M, L90M). Put plainly: Cell culture inhibition profiling, HIV-2 vector harboring the double mutation. Type of test: cell-based. To be noted: for IC50: transfected 293T cells, 3 days, RT activity in medium, triplicate, mean ± SD, read-out: IC50 Double Mutant (I54M, L90M) (cell culture); for Fold Increase (IC50, cell culture): IC50 double mutant versus wild-type; for Effect of I54M-L90M double mutation on IC50 in cell culture, in words: double mutant versus wild-type vector.

Test [2] concerns the target T1, double mutant (I54M, L90M) HIV-2 protease (Human immunodeficiency virus type 2 subtype A, UniProt P04584, I567M/L603M).
T1 sequence (P04584 514-612 I567M/L603M): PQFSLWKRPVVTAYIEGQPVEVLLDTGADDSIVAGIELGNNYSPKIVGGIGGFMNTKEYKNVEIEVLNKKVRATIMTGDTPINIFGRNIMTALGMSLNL
Put plainly: In vitro enzymatic (HPLC) inhibition assay, double mutant protease. In kind it is biochemical.

The next test addresses wild-type HIV-2 protease (Human immunodeficiency virus type 2 subtype A, UniProt P04584). In words: In vitro enzymatic (HPLC) inhibition assay, wild-type protease. In kind it is biochemical.
Another test relates to wild-type HIV-2 vectors. Put plainly: Cell culture inhibition profiling, wild-type HIV-2 vector. In kind it is cell-based. To be noted: transfected 293T cells, 3 days, RT activity in medium, triplicate, mean ± SD.
For test [3], the system named is double mutant (I54M, L90M) HIV-2 protease. Put plainly: In vitro enzymatic (HPLC) inhibition assay, double mutant protease. Type of test: biochemical. To be noted: for Fold Increase (Ki): Ki double mutant versus wild-type.
The mark [4] stands for this setting: Human immunodeficiency virus 2, HEK-293T, 72 h.
Where [5] appears, read: HPLC, oligopeptide substrate, pH 5.6, 37 °C 1 h, triplicate, mean ± SD, read-out: IC50 Wild-Type.
[6] abbreviates: calculated from IC50 by Ki = (IC50 − E/2)/(S/Km + 1), mean ± SD, read-out: Ki Wild-Type.

Values joined by “and” are separate entries in the source; they are usually repeats but may differ in a detail not shown here. Identical values can stand only once. “Also recorded” adds a separate entry of the source. Counter-ions that a name gives are not always drawn. Like-named read-outs stand apart in the source and are kept apart here. A value given as a limit tells only on which side of the number the result lay.

The term IC50 denotes the point on the concentration scale where inhibition reaches its midpoint. For orientation: Ki means the dissociation constant of the complex between target and ligand, obtained from inhibition or displacement.

Chain of wild-type HIV-2 protease (P04584 514-612 limits assumed): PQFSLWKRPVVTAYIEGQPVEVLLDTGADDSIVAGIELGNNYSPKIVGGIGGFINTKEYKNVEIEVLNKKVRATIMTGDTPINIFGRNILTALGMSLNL

Take `CC(C)CN(C[C@@H](O)[C@H](Cc1ccccc1)NC(=O)O[C@H]1CCOC1)S(=O)(=O)c1ccc(N)cc1` [Amprenavir]: the figures for the IC50 in test [1] (setting [4]) and in test [2] were greater than 100000 nM and 152 ± 9 nM, respectively.
With `COC(=O)N[C@H](C(=O)N[C@@H](Cc1ccccc1)[C@@H](O)CN(Cc1ccc(-c2ccccn2)cc1)NC(=O)[C@@H](NC(=O)OC)C(C)(C)C)C(C)(C)C.O=S(=O)(O)O` [Atazanavir sulfate, atazanavir sulfate], at wild-type HIV-2 protease (wild-type protease, read-out: Ki Wild-Type (as printed in text in μM)), the Ki is 0.09 ± 0.03 nM. In the test with wild-type HIV-2 vectors, this molecule yielded an IC50 of 5900 ± 500 nM. In test [1], the “Fold Increase (IC50, cell culture)” value is reported as 4.8 fold; the “Effect of I54M-L90M double mutation on IC50 in cell culture, in words” value (“Effect of I54M-L90M double mutation” below) is given as “significant IC50 increase”; the half-maximal inhibitory concentration (IC50) turned out to be 28600 ± 350 nM. Also, in test [3], the “Fold Increase (Ki)” value was “more than 10 fold”.
With `COC(=O)N[C@H](C(=O)N[C@@H](Cc1ccccc1)[C@@H](O)CN(Cc1ccc(-c2ccccn2)cc1)NC(=O)[C@@H](NC(=O)OC)C(C)(C)C)C(C)(C)C` [Atazanavir], the figures for the IC50 (at wild-type HIV-2 protease (setting [5]); in test [2]) were 3.34 ± 1 nM and 10.9 ± 0.2 nM, respectively. Besides, the inhibitory constant (Ki) on wild-type HIV-2 protease (setting [6]) was 0.09 ± 0.03 nM. The “Fold Increase (Ki)” value in test [3] came to 16.6 fold.
As to `CC(C)CN(C[C@@H](O)[C@H](Cc1ccccc1)NC(=O)O[C@H]1CO[C@H]2OCC[C@H]21)S(=O)(=O)c1ccc(N)cc1` [Darunavir], the half-inhibitory concentration (IC50) turned out to be 1.76 ± 0.1 nM against wild-type HIV-2 protease, 18700 ± 1600 nM in test [1] (setting [4]) and 8.14 ± 1.3 nM in test [2]. In addition, at wild-type HIV-2 protease (Ki Wild-Type, calculated from IC50 by Ki = (IC50 − E/2)/(S/Km + 1), mean ± SD), the Ki was 0.05 ± 0.005 nM. The “Fold Increase (IC50, cell culture)” value in test [1] is 44.5 fold; in test [1] (listed as darunavir), greater than 40 fold. Also, the entries for the “Fold Increase (Ki)” value in test [3] and in test [3] (listed as darunavir) were 22.2 fold and greater than 20 fold, respectively.
As to `CC(C)(C)NC(=O)[C@@H]1CN(Cc2cccnc2)CCN1C[C@@H](O)C[C@@H](Cc1ccccc1)C(=O)N[C@H]1c2ccccc2C[C@H]1O` [Indinavir sulfate, indinavir sulfate], on wild-type HIV-2 protease (setting [6]), the inhibition constant Ki was 0.03 nM. In test [1] (setting [4]), the concentration for half-maximal inhibition (IC50) is 16500 ± 2100 nM. The “Fold Increase (IC50, cell culture)” value in test [1] is on record as 11.7 fold; in test [1] (listed as indinavir sulfate), greater than 10 fold. In test [3], the “Fold Increase (Ki)” value was “more than 10 fold”.
In the case of `CC(C)(C)NC(=O)[C@@H]1CN(Cc2cccnc2)CCN1C[C@@H](O)C[C@@H](Cc1ccccc1)C(=O)N[C@H]1c2ccccc2C[C@H]1O` [Indinavir], the IC50 at wild-type HIV-2 protease (setting [5]) stood at 1.3 ± 0.5 nM; in test [2] it was 2.6 ± 1.4 nM. The “Fold Increase (Ki)” value in test [3] worked out at 12 fold.
Take `Cc1cccc(C)c1OCC(=O)N[C@@H](Cc1ccccc1)[C@@H](O)C[C@H](Cc1ccccc1)NC(=O)[C@H](C(C)C)N1CCCNC1=O` [Lopinavir]: the IC50 on wild-type HIV-2 protease (setting [5]) amounted to 1.18 ± 0.1 nM; in test [1] (setting [4]), 3100 ± 1100 nM; in test [2], 2.32 ± 0.1 nM. Moreover, the Ki on wild-type HIV-2 protease (setting [6]) is 0.03 ± 0.001 nM. Besides, the entries for the “Fold Increase (IC50, cell culture)” value in test [1] and in test [1] (listed as lopinavir) were 20.6 fold and greater than 20 fold, respectively. Besides, the results for the “Fold Increase (Ki)” value in test [3] and in test [3] (listed as lopinavir) were 10.6 fold and “more than 10 fold”, respectively.
Turning to `Cc1c(O)cccc1C(=O)N[C@@H](CSc1ccccc1)[C@H](O)CN1C[C@H]2CCCC[C@H]2C[C@H]1C(=O)NC(C)(C)C` [Nelfinavir], the figures for the concentration for half-maximal inhibition (IC50) (on wild-type HIV-2 protease (setting [5]); in test [1] (setting [4]); in test [2]) were 38 ± 10 nM, 5100 ± 1700 nM and 190 ± 14.5 nM, respectively. Also, the Ki at wild-type HIV-2 protease (setting [6]) is 1 nM and 1.01 nM. In addition, the “Fold Increase (IC50, cell culture)” value in test [1] was determined as 1.8 fold. For the same molecule, in test [1], the “Effect of I54M-L90M double mutation” value is reported as “significant IC50 increase”. The results for the “Fold Increase (Ki)” value in test [3] and in test [3] (listed as nelfinavir) were 26 fold and greater than 20 fold, respectively.
As to `CC(C)c1nc(CN(C)C(=O)N[C@H](C(=O)N[C@@H](Cc2ccccc2)C[C@H](O)[C@H](Cc2ccccc2)NC(=O)OCc2cncs2)C(C)C)cs1` [Ritonavir], the IC50 in test [1] (setting [4]) was 14500 ± 300 nM.
On to `CC(C)(C)NC(=O)[C@@H]1C[C@@H]2CCCC[C@@H]2CN1C[C@@H](O)[C@H](Cc1ccccc1)NC(=O)[C@H](CC(N)=O)NC(=O)c1ccc2ccccc2n1` [Saquinavir], for which the 50% inhibitory concentration (IC50) is 3.42 ± 0.1 nM at wild-type HIV-2 protease (setting [5]), 3500 ± 1200 nM in test [1] (setting [4]) and 14.1 ± 1.7 nM in test [2]. For the same molecule, at wild-type HIV-2 protease (setting [6]), the inhibition constant Ki was 0.09 ± 0.001 nM. Further, the “Fold Increase (IC50, cell culture)” value in test [1] is listed as 2.7 fold. The “Effect of I54M-L90M double mutation” value in test [1] is given as “significant IC50 increase”. The “Fold Increase (Ki)” value in test [3] is on record as 21.4 fold; in test [3] (listed as saquinavir), greater than 20 fold.
Regarding `CCC[C@@]1(CCc2ccccc2)CC(O)=C([C@H](CC)c2cccc(NS(=O)(=O)c3ccc(C(F)(F)F)cn3)c2)C(=O)O1` [Tipranavir], the figures for the half-inhibitory concentration (IC50) (at wild-type HIV-2 protease (setting [5]); in test [1] (setting [4]); in test [2]) were 50 ± 2 nM, 5800 ± 1700 nM and 4.8 ± 1.6 nM, respectively. At wild-type HIV-2 protease (setting [6]), the inhibition constant (Ki) is 1.3 nM and 1.31 nM. In addition, the “Fold Increase (IC50, cell culture)” value in test [1] is 1.5 fold. Also, the “Effect of I54M-L90M double mutation” value in test [1] is listed as “did not have an effect”. Further, the “Fold Increase (Ki)” value in test [3] is on record as 0.5 fold. In test [3] (double mutant versus wild-type protease), the “Effect of I54M, L90M double mutation on inhibitor efficacy (enzymatic), in words” value is “remained indifferent to the mutations; also recorded: did not observe a significant increase in Ki”.

Source of the values: PMC4690855 (Viruses, 2015).
